For this assay, the target named is Carbonic anhydrase 3 (Homo sapiens, UniProt P07451).

pKi: −log10 of the molar value.

Sequence of Carbonic anhydrase 3 (P07451 whole entry): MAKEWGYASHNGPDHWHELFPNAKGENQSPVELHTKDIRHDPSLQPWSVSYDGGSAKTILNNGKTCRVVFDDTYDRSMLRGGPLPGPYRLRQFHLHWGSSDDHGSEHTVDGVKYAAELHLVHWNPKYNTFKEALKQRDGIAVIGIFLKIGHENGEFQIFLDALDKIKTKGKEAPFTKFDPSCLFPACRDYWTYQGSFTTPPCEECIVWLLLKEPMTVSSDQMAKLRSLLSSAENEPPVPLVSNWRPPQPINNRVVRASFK

Regarding `Nc1ccc(S(=O)(=O)NCc2ccc(S(N)(=O)=O)cc2)cc1`, the pKi (as a rule, −log10 of the Ki, conventionally taken in molar units) is 3.94.
The same measure for `NCc1ccc(S(N)(=O)=O)cc1` [MAFENIDE]: 3.17.
For `Nc1ccc(S(N)(=O)=O)cc1F`, the pKi was 2.68.
On to `NS(=O)(=O)c1cc(Cl)c(Cl)c(S(N)(=O)=O)c1` [DICHLORPHENAMIDE], for which the pKi is 3.16.
Compound `NS(=O)(=O)c1ccc(C(=O)O)cc1` [CARZENIDE] gave a pKi of 4.95.
The same measure for `Nc1ccc(S(=O)(=O)Nc2nnc(S(N)(=O)=O)s2)cc1`: 4.74; for `Nc1ccc(S(N)(=O)=O)cc1` [SULFANILAMIDE]: 3.01; for `Nc1ccc(S(=O)(=O)NCCc2ccc(S(N)(=O)=O)cc2)cc1`: 3.85.
Next, `Nc1nnc(S(N)(=O)=O)s1`: 3.83; `Nc1nccc(Nc2ccc(S(N)(=O)=O)cc2)n1`: 2.58; `O=C1NS(=O)(=O)c2ccccc21` [SACCHARIN]: 3.00.
Compound `Cc1ccc(S(N)(=O)=O)cc1` [P-TOLUENESULFONAMIDE] had a pKi of 5.10.
Next, `Nc1ccccc1S(N)(=O)=O`: 3.05.
`Nc1ccc(S(N)(=O)=O)cc1Cl`: the pKi is 3.15. This pKi and that of the compound before are within 0.2 log units of each other.
Next, `CCNC1CN(CCCOC)S(=O)(=O)c2sc(S(N)(=O)=O)cc21` (single isomer, unassigned) [BRINZOLAMIDE]: 3.96; `NS(=O)(=O)c1ccc(CCO)cc1`: 2.93; `NS(=O)(=O)c1ccc(CO)cc1`: 2.31.
The compound `NS(=O)(=O)c1ccc(S(=O)(=O)Nc2cccc3c(Cl)c[nH]c23)cc1` gave a pKi of 4.98.
The same measure for `CCN1CCCC1CNC(=O)c1cc(S(N)(=O)=O)ccc1OC` (configuration not stated) [SULPIRIDE]: 4.97; for `Cc1ccc(-c2cc(C(F)(F)F)nn2-c2ccc(S(N)(=O)=O)cc2)cc1` [CELECOXIB]: 3.81; for `CC1(C)O[C@@H]2[C@@H](CO[C@@]3(COS(N)(=O)=O)OC(C)(C)O[C@@H]23)O1` [TOPIRAMATE]: 3.11.
Next, `Cn1nc(S(N)(=O)=O)sc1=N`: 3.70.

The values above are taken from ChEMBL document CHEMBL1137482, “Carbonic anhydrase inhibitors: cloning, characterization, and inhibition studies of the cytosolic isozyme III with sulfonamides” (Bioorg Med Chem, 2007).
